Assay results published in publication PMC11823594, “Durlobactam in combination with β-lactams to combat Mycobacterium abscessus” (Antimicrobial Agents and Chemotherapy, 2024).

How the values were obtained:
[1] = human, in vivo; cited from earlier work
LDT3 = LDT3 (Mycobacterium abscessus, UniProt B1MHQ4); experiment: Steady-state kinetics with nitrocefin (Ki,app); type: biochemical; conditions: in parentheses in Table 3
Outline: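 Purified enzyme at fixed concentration with nitrocefin at 5 × Km, varied β-lactam/BLI concentrations; A482 followed over 0–30 min. Ki,app taken from Dixon plots (1/ΔA vs inhibitor) and corrected for substrate: observed Ki,app/(1+[NCF]/Km NCF).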

LDT3, sequence (B1MHQ4 entry or part of it): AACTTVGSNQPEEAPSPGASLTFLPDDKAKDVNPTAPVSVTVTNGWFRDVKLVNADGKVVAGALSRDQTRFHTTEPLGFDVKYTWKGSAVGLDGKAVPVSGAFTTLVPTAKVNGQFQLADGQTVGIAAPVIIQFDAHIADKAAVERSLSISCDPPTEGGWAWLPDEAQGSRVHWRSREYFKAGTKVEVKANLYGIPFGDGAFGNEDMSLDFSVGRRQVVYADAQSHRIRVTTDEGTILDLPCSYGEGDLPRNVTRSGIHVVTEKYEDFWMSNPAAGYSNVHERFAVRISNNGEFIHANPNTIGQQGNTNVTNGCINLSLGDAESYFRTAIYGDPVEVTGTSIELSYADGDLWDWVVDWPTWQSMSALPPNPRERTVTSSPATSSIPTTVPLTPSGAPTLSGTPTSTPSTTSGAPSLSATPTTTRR

SMILES | Total clearance after IV dosing [1] [L/h] | Ratio of fCss,avg to Ki,app, LDT3 (LDT3)
CO/N=C(\C(=O)N[C@@H]1C(=O)N2C(C(=O)O)=C(COC(N)=O)CS[C@H]12)c1ccco1 [Cefuroxime, cefuroxime] | 9.0 to 16 | –
C[C@@H](O)[C@H]1C(=O)N2C(C(=O)O)=C(S[C@H]3CC[S@@+]([O-])C3)S[C@H]12 [Sulopenem, sulopenem] | – | 0.4
